Experimental data from patent US20150094354A1, “METHOD FOR TREATING CELL PROLIFERATIVE DISORDER BY INHIBITING C1GALT1 EXPRESSION” (National Taiwan University, priority 2013, published 2015).

Experiments:
[1] = tested on: Sk-Hep1 cells; assay: Trypan blue exclusion assay of C1GALT1-enhanced cell viability with MET inhibitor; format: cell-based, human; settings: Sk-Hep1, C1GALT1 overexpression, 72 hours
Description: (§1) Cells (4×10^4) are seeded in each well of 6-well plates with DMEM containing 10% FBS. Viable cells are analyzed by Trypan blue exclusion assay at 0, 24, 48, and 72 hours. Cell proliferation is evaluated by immunostaining with anti-Ki67 antibody (1:1000; Vector Laboratories). For cell-cycle analysis, 1×10^6 cells are stained with propidium iodide (Sigma) for 30 minutes. The percentages of cells in G1, S, and G2M phases are analyzed by flow cytometry (Becton Dickinson). […] Data are represented as means±SD from three independent experiments (** refers to P<0.01).

[2] = tested on: HCC36 cells; assay: as above; format: cell-based, human; settings: HCC36, C1GALT1 overexpression, 72 hours
Description: as §1

[3] = tested on: CL1-5 cell lines; assay: MTT cell growth assay, lung cancer cells; format: cell-based, human; parameters: dose or concentration left out as unconfirmed; settings: CL1-5, itraconazole for 5 days, compared with control (DMSO)
Description: (§2) FIG. 88A is a schematic diagram illustrating that itraconazole suppresses lung cancer cell growth in accordance with an embodiment of the present invention. To determine whether impairing C1GALT1 function affects lung cancer cell malignant phenotypes, the effects of itraconazole on lung cancer cell growth are analyzed by MTT cell growth assay in CL1-5 cell lines. Cells (3×10^3) are seeded into 96-well microtitre plates and treated with DMSO (control) or itraconazole 10 µg/ml for 5 days at 37° C. under 5% CO2 atmosphere. Results from two independent experiments are presented as mean±SD and analyzed with student's t-test, *p<0.05 and **p<0.01.

[4] = tested on: T47D cell lines; assay: MTT cell growth assay, breast cancer cells (itraconazole); format: cell-based, human; parameters: dose or concentration left out as unconfirmed; settings: itraconazole for 5 days, compared with control (DMSO)
Description: as §2, with “88B” for “88A”, “breast” for “lung”, “T47D” for “CL1-5”

[5] = target: T1, C1GALT1 (Homo sapiens, UniProt Q9NS00); assay: FITC-VVA FACS analysis of Tn antigen accumulation in CL1-5 lung cancer cells; format: cell-based; parameters: endogenous in cells; settings: for VVA peak shift (accumulation of Tn antigens): itraconazole 10 ug/ml
Description: (§3) FIGS. 85A-85D are graphs illustrating that itraconazole impairs C1GALT1 function leading to the accumulation of Tn antigen expression in lung cancer cells in accordance with an embodiment of the present invention. […] After itraconazole treatment, cells are detached with 5 mM EDTA. Afterwards, FITC conjugated Vicia villosa agglutinin (VVA), lectin specifically recognizing Tn antigen, is applied for analysis with a fluoresencce-activated cell sorting (FACS) system. A right-shift of the VVA peak indicates accumulation of Tn antigens. […] After itraconazole treatment, cells are detached with 5 mM EDTA and treated with or without 10 mU/ml neuraminidase to unmask the effects of sialylated O-glycans. After treatment with neuraminidase, FITC conjugated Vicia villosa agglutinin (VVA), lectin specifically recognizing Tn antigen, is applied for analysis with a fluoresencce-activated cell sorting (FACS) system. […] To confirm whether the peak shift is a result of impaired C1GALT1 function, mock and C1GALT1 overexpressed CL1-5 cells are analyzed. […] Overexpression of C1GALT1 results in a left-shift of the VVA peak in itraconazole untreated transfectants, indicating intact C1GALT1 function in depleting Tn antigens as substrates for T antigen synthesis.
Target sequence in this assay (Q9NS00 whole entry): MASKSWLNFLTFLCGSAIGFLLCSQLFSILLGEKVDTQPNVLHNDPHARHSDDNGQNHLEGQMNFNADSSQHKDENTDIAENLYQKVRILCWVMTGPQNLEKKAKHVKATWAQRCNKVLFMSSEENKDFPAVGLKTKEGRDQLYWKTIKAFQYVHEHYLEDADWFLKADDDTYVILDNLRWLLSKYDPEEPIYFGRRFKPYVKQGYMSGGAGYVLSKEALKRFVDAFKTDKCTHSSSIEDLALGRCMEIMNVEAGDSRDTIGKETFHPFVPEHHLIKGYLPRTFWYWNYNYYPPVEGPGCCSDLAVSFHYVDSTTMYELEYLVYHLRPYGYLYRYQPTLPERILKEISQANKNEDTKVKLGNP

[6] = target: T1, C1GALT1; assay: FITC-VVA FACS analysis of Tn antigen accumulation in T47D breast cancer cells; format: cell-based; parameters: endogenous in cells; host or cells: T47D breast cancer cells
Description: as §3, with “86A-86D” for “85A-85D”, “breast” for “lung”, “indicates the” for “indicates”, “T47D” for “CL1-5”, “itraconazole-untreated” for “itraconazole untreated”

[7] = tested on: C1GALT1; assay: as above; format: cell-based, human; settings: mock and C1GALT1 overexpressed T47D transfectants, itraconazole 10 ug/ml
Description: as §3, with “86A-86D” for “85A-85D”, “breast” for “lung”, “indicates the” for “indicates”, “T47D” for “CL1-5”, “itraconazole-untreated” for “itraconazole untreated”

[8] = tested on: HCC36 cell lines; assay: MTT cell growth assay, liver cancer cells; format: cell-based, human; parameters: dose or concentration left out as unconfirmed; settings: HCC36, itraconazole for 5 days, compared with control (DMSO)
Description: as §2, with “88C” for “88A”, “liver” for “lung”, “HCC36” for “CL1-5”

[9] = target: T1, C1GALT1; assay: FITC-VVA FACS analysis of Tn antigen accumulation in HCC36 liver cancer cells; format: cell-based; parameters: endogenous in cells; settings: for VVA peak shift (accumulation of Tn antigens): itraconazole 10 ug/ml
Source text: According to another embodiment of the present invention, in the experiment in vitro, itraconazole, a small molecular drug, is used as the C1GALT1 inhibition substance. Itraconazole is an FDA approved drug that is clinically employed as an antimicrobial for the treatment of fungal, mycosis, and candida infections. The inventors of the present invention discovered that the structure of itraconazole is suitable for binding to the catalytic domain of C1GALT1 and inhibiting C1GALT1. Cells are cultured in DMEM with 10% FBS and treated with itraconazole 10 ug/ml for 3 days at 37° C. under 5% CO2.
FIGS. 87A-87D are graphs illustrating that itraconazole impairs C1GALT1 function leading to accumulation of Tn antigen expression in […] cancer cells in accordance with an embodiment of the present invention. […] After itraconazole treatment, cells are detached with 5 mM EDTA. Afterwards, FITC conjugated Vicia villosa agglutinin (VVA), lectin specifically recognizing Tn antigen, is applied for analysis with a fluoresencce-activated cell sorting (FACS) system. A right-shift of VVA peak indicates the accumulation of Tn antigens. […] After itraconazole treatment, cells are detached with 5 mM EDTA and treated with or without 10 mU/ml neuraminidase to unmask the effects of sialylated O-glycans. After treatment with neuraminidase, FITC conjugated Vicia villosa agglutinin (VVA), lectin specifically recognizing Tn antigen, is applied for analysis with a fluoresencce-activated cell sorting (FACS) system. […] To confirm whether the peak shift is a result of impaired C1GALT1 function, mock and C1GALT1 overexpressed HCC36 cells are analyzed. […] Overexpression of C1GALT1 results in left-shift of the VVA peak in itraconazole-untreated transfectants, indicating intact C1GALT1 function in depleting Tn antigens as substrates for T antigen synthesis.
Target sequence in this assay (Q9NS00 whole entry): as above

| Compound | C1GALT1-enhanced cell viability [1] | C1GALT1-enhanced cell viability [2] | lung cancer cell growth [3] | breast cancer cell growth [4] | VVA peak shift (accumulation of Tn antigen substrates) ([5]; C1GALT1 overexpressed CL1-5 cells, sialylated O-glycans unmasked by neuraminidase) | VVA peak shift (accumulation of Tn antigens) ([5]; CL1-5 parental cells, regardless of sialylated O-glycans) | VVA peak shift (accumulation of Tn antigens) ([5]; mock and C1GALT1 overexpressed CL1-5 transfectants) | VVA peak shift (accumulation of Tn antigen substrates) ([6]; C1GALT1 overexpressed T47D cells, sialylated O-glycans unmasked by neuraminidase) | VVA peak shift (accumulation of Tn antigens) ([6]; T47D parental cells, itraconazole 10 ug/ml, regardless of sialylated O-glycans) | VVA peak shift (accumulation of Tn antigens) [7] | liver cancer cell growth [8] | VVA peak shift (accumulation of Tn antigen substrates) ([9]; C1GALT1 overexpressed HCC36 cells, sialylated O-glycans unmasked by neuraminidase) | VVA peak shift (accumulation of Tn antigens) ([9]; HCC36 parental cells, regardless of sialylated O-glycans) | VVA peak shift (accumulation of Tn antigens) ([9]; mock and C1GALT1 overexpressed HCC36 transfectants) |
| --- | --- | --- | --- | --- | --- | --- | --- | --- | --- | --- | --- | --- | --- | --- |
| Cc1[nH]c(/C=C2\C(=O)Nc3ccc(S(=O)(=O)Cc4c(Cl)cccc4Cl)cc32)c(C)c1C(=O)N1CCC[C@@H]1CN1CCCC1 [PHA665752] | significantly inhibited | significantly inhibited |  |  |  |  |  |  |  |  |  |  |  |  |
| CCC(C)n1ncn(-c2ccc(N3CCN(c4ccc(OCC5COC(Cn6cncn6)(c6ccc(Cl)cc6Cl)O5)cc4)CC3)cc2)c1=O (centres unmarked) [itraconazole] |  |  | significantly suppressed | significantly suppressed | major peak shifts to the right | right shift of the VVA peak | major right-shift of the VVA peaks | major peak shifts to the right | right shift of the VVA peak | major right-shift of the VVA peaks | significantly suppressed | major peak shifts to the right | right shift of the VVA peak | major right-shift of the VVA peaks |
